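96-well plates; 48 h exposure; 5 concentrations. Endpoints by linear interpolation between flanking doses. Not reached: highest tested concentration assigned. The concentration for full growth arrest is given as TGI.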
Each compound was assayed on DLD-1 colon (assay: NCI-60 cell line screen, 48 h).
With COC(=O)[C@@]1(C)/C(=N/NS(=O)(=O)c2ccc(C)cc2)CCC[C@@H]1C the TGI was > 100 µM. With COc1ccc(OC)c(/C=C(/C#N)c2ccccc2)c1 the TGI was > 100 µM. With COC(=O)C(C(=O)Cc1ccccc1[N+](=O)[O-])C(=O)OC the TGI was > 100 µM. With CCCCC/C=C1\CCC(CN(C)C)C1=O (stereo not given) the TGI was 14.4 µM. In the case of C=C(C)C1CCC2(C)CC1c1c(c(C)cc3c1[nH]c1ccccc13)O2 (stereo not given), the TGI is reported as > 25 µM. With CCOC1c2cc(C(C)C)c(O)c(O)c2[C@@]23CCCC(C)(C)C2C1OC3=O (stereo not given in full) the TGI was > 100 µM. C=CN1C(=O)[C@H](Oc2ccccc2)[C@@H]1c1ccccc1 was tested, and the TGI was > 100 µM. For COc1ccc(C(C#N)NNC(=O)Cc2ccccc2)cc1OC (stereo not given), the TGI was > 100 µM. With CC(C)=CC1CC(=[N+]=[N-])C(=O)C1(C)C (stereo not given) the TGI was > 100 µM. Compound O=C(CSc1c2ccccc2nc2ccccc12)Nc1ccccc1-c1ccccc1NC(=O)CSc1c2ccccc2nc2ccccc12 has a TGI of 33.4 µM. In the case of O=S(=O)(c1ccccc1)N1N=C2c3ccccc3CCC[C@H]2C1c1ccccc1 (stereo not given in full), the TGI is reported as > 100 µM.

These compounds were tested on DMS 273 small cell lung (assay: NCI-60 cell line screen, 48 h).
Work on COc1ccc(OC)c(/C=C(/C#N)c2ccccc2)c1 yielded a TGI of 24.5 µM. With COC(=O)C(C(=O)Cc1ccccc1[N+](=O)[O-])C(=O)OC the TGI was > 100 µM. CCCCC/C=C1\CCC(CN(C)C)C1=O (stereo not given) gave a TGI of 34 µM. With C=C(C)C1CCC2(C)CC1c1c(c(C)cc3c1[nH]c1ccccc13)O2 (stereo not given) the TGI was > 25 µM. With CN(CCN(C)C(=O)CCn1cc(F)c(=O)[nH]c1=O)C(=O)CCn1cc(F)c(=O)[nH]c1=O the TGI was > 100 µM. CCOC1c2cc(C(C)C)c(O)c(O)c2[C@@]23CCCC(C)(C)C2C1OC3=O (stereo not given in full) was tested, and the TGI was > 100 µM. For CS(=O)(=O)c1ccc(-c2cc(-c3ccc(S(C)(=O)=O)cc3)[n+](-c3cc(-c4ccccc4)c([O-])c(-c4ccccc4)c3)c(-c3ccc(S(C)(=O)=O)cc3)c2)cc1, the TGI was > 100 µM. With COc1ccc(C(C#N)NNC(=O)Cc2ccccc2)cc1OC (stereo not given) the TGI was > 100 µM. In the case of COc1cccc(C2CC23C(=O)NC(=O)NC3=O)c1 (stereo not given), the TGI is reported as > 100 µM. For O=C(CSc1c2ccccc2nc2ccccc12)Nc1ccccc1-c1ccccc1NC(=O)CSc1c2ccccc2nc2ccccc12, the TGI was > 100 µM. O=S(=O)(c1ccccc1)N1N=C2c3ccccc3CCC[C@H]2C1c1ccccc1 (stereo not given in full) was tested, and the TGI was > 100 µM.

Each compound was assayed on HOP-18 NSCLC (assay: NCI-60 cell line screen, 48 h).
In the case of COC(=O)[C@@]1(C)/C(=N/NS(=O)(=O)c2ccc(C)cc2)CCC[C@@H]1C, the TGI is reported as > 100 µM. With COc1ccc(OC)c(/C=C(/C#N)c2ccccc2)c1 the TGI was > 100 µM. In the case of COC(=O)C(C(=O)Cc1ccccc1[N+](=O)[O-])C(=O)OC, the TGI is reported as > 100 µM. CCCCC/C=C1\CCC(CN(C)C)C1=O (stereo not given) gave a TGI of 39.4 µM. C=CN1C(=O)[C@H](Oc2ccccc2)[C@@H]1c1ccccc1 was tested, and the TGI was > 100 µM. For CS(=O)(=O)c1ccc(-c2cc(-c3ccc(S(C)(=O)=O)cc3)[n+](-c3cc(-c4ccccc4)c([O-])c(-c4ccccc4)c3)c(-c3ccc(S(C)(=O)=O)cc3)c2)cc1, the TGI was > 100 µM. In the case of COc1ccc(C(C#N)NNC(=O)Cc2ccccc2)cc1OC (stereo not given), the TGI is reported as > 100 µM. With CC(C)=CC1CC(=[N+]=[N-])C(=O)C1(C)C (stereo not given) the TGI was > 100 µM. In the case of O=C(CSc1c2ccccc2nc2ccccc12)Nc1ccccc1-c1ccccc1NC(=O)CSc1c2ccccc2nc2ccccc12, the TGI is reported as > 100 µM. For O=S(=O)(c1ccccc1)N1N=C2c3ccccc3CCC[C@H]2C1c1ccccc1 (stereo not given in full), the TGI was > 100 µM.

What follows are compounds tested on KM20L2 colon (assay: NCI-60 cell line screen, 48 h).
In the case of COC(=O)[C@@]1(C)/C(=N/NS(=O)(=O)c2ccc(C)cc2)CCC[C@@H]1C, the TGI is reported as > 100 µM. With COc1ccc(OC)c(/C=C(/C#N)c2ccccc2)c1 the TGI was > 100 µM. In the case of COC(=O)C(C(=O)Cc1ccccc1[N+](=O)[O-])C(=O)OC, the TGI is reported as > 100 µM. For CCCCC/C=C1\CCC(CN(C)C)C1=O (stereo not given), the TGI was 30.1 µM. In the case of C=C(C)C1CCC2(C)CC1c1c(c(C)cc3c1[nH]c1ccccc13)O2 (stereo not given), the TGI is reported as > 25 µM. With CN(CCN(C)C(=O)CCn1cc(F)c(=O)[nH]c1=O)C(=O)CCn1cc(F)c(=O)[nH]c1=O the TGI was > 100 µM. CCOC1c2cc(C(C)C)c(O)c(O)c2[C@@]23CCCC(C)(C)C2C1OC3=O (stereo not given in full) was tested, and the TGI was > 100 µM. For C=CN1C(=O)[C@H](Oc2ccccc2)[C@@H]1c1ccccc1, the TGI was > 100 µM. For CS(=O)(=O)c1ccc(-c2cc(-c3ccc(S(C)(=O)=O)cc3)[n+](-c3cc(-c4ccccc4)c([O-])c(-c4ccccc4)c3)c(-c3ccc(S(C)(=O)=O)cc3)c2)cc1, the TGI was > 100 µM. CC(C)=CC1CC(=[N+]=[N-])C(=O)C1(C)C (stereo not given) was tested, and the TGI was > 100 µM. COc1cccc(C2CC23C(=O)NC(=O)NC3=O)c1 (stereo not given) was tested, and the TGI was > 100 µM. O=C(CSc1c2ccccc2nc2ccccc12)Nc1ccccc1-c1ccccc1NC(=O)CSc1c2ccccc2nc2ccccc12 was tested, and the TGI was > 100 µM. For O=S(=O)(c1ccccc1)N1N=C2c3ccccc3CCC[C@H]2C1c1ccccc1 (stereo not given in full), the TGI was > 100 µM. In the case of CCOC(=O)/C(=C/c1ccc(N(C)C)cc1)N(CC)CC, the TGI is reported as > 100 µM.

The compounds below were run on LXFL 529 NSCLC (assay: NCI-60 cell line screen, 48 h).
For COC(=O)[C@@]1(C)/C(=N/NS(=O)(=O)c2ccc(C)cc2)CCC[C@@H]1C, the TGI was > 100 µM. With COc1ccc(OC)c(/C=C(/C#N)c2ccccc2)c1 the TGI was > 100 µM. COC(=O)C(C(=O)Cc1ccccc1[N+](=O)[O-])C(=O)OC was tested, and the TGI was > 100 µM. Work on CCCCC/C=C1\CCC(CN(C)C)C1=O (stereo not given) yielded a TGI of 3.9 µM.

— PubChem BioAssay (NCI)
